Literature values in patent publication US12655168B2, “Isolation of steviol glycosides” (DSM IP ASSETS B.V., priority 2019, dated 2026).

Assays:
[1] = Type II diabetics
[2] = mildly hypertensive patients
[3] = relative to sucrose
[4] = new hemihydrate crystal form; obtained after heating and cooling a 0.06% reb B solution to room temperature

## C=C1C[C@@]23CC[C@H]4[C@@](C)(CCC[C@@]4(C)C(=O)O[C@@H]4O[C@H](CO)[C@@H](O)[C@H](O)[C@H]4O)[C@@H]2CC[C@]1(O[C@@H]1O[C@H](CO)[C@@H](O)[C@H](O)[C@H]1O[C@@H]1O[C@H](CO)[C@@H](O)[C@H](O)[C@H]1O)C3 [Stevioside]
[1]
  effect on blood glucose levels: reduce blood glucose levels
[2]
  effect on blood pressure: reduce blood pressure

## C=C1C[C@@]23CC[C@H]4[C@@](C)(CCC[C@@]4(C)C(=O)O[C@@H]4O[C@H](CO)[C@@H](O)[C@H](O)[C@H]4O[C@@H]4O[C@H](CO)[C@@H](O)[C@H](O)[C@H]4O)[C@@H]2CC[C@]1(O[C@@H]1O[C@H](CO)[C@@H](O)[C@H](O[C@@H]2O[C@H](CO)[C@@H](O)[C@H](O)[C@H]2O)[C@H]1O[C@@H]1O[C@H](CO)[C@@H](O)[C@H](O)[C@H]1O)C3 [rebaudioside D]
[3]
  times sweeter than sucrose: about 200 times

## rebaudioside B
[4]
  solubility in water: 50 ppm
